# According to patent publication US20170333591A9, “ABSORBENT ARTICLE COMPRISING MALODOR REDUCTION COMPOSITIONS” (The Procter & Gamble Company, priority 2014, published 2017):
# Assay: Log of liquid dish neat product liquid-air partition coefficient
# Type: physicochemical
# Settings: for Log of liquid dish neat product liquid-air partition coefficient (Comment Code): code letters K/L of the Comment Code
smiles,measurement,value
COc1ccc(COC(C)=O)cc1 [Material 664],Comment Code: Log of liquid dish neat product liquid-air partition coefficient,K (Log of liquid dish neat product liquid-air partition coefficient greater than or equal to 7)
COc1ccc(COC=O)cc1 [Material 665],Comment Code: Log of liquid dish neat product liquid-air partition coefficient,K (Log of liquid dish neat product liquid-air partition coefficient greater than or equal to 7)
CCCCCOC(=O)C=Cc1ccccc1 [Material 671],Log of liquid dish neat product liquid-air partition coefficient (Comment Code),K (Log of liquid dish neat product liquid-air partition coefficient greater than or equal to 7)
CCCCCOC(=O)c1ccccc1 [Material 672],Comment Code: Log of liquid dish neat product liquid-air partition coefficient,K (Log of liquid dish neat product liquid-air partition coefficient greater than or equal to 7)
C[C@@H]1CC[C@H]2C(C)(C)[C@H]3C[C@@]12CC1OC(C)(C)OC13C (stereo partly shown) [Material 674],Comment Code: Log of liquid dish neat product liquid-air partition coefficient,K (Log of liquid dish neat product liquid-air partition coefficient greater than or equal to 7)
same,Log of liquid dish neat product liquid-air partition coefficient (Comment Code),K (Log of liquid dish neat product liquid-air partition coefficient greater than or equal to 7)
CC1(O)CCC2=C(CCCC2(C)C)C1 (stereo not shown) [Material 675],Log of liquid dish neat product liquid-air partition coefficient (Comment Code),K (Log of liquid dish neat product liquid-air partition coefficient greater than or equal to 7)
CC1(O)CCC2=C(CCCC2(C)C)C1 (stereo not shown) [Material 676],Log of liquid dish neat product liquid-air partition coefficient (Comment Code),K (Log of liquid dish neat product liquid-air partition coefficient greater than or equal to 7)
CCC(O)COC1CCCCC1C(C)(C)C (stereo not shown) [Material 677],Log of liquid dish neat product liquid-air partition coefficient (Comment Code),K (Log of liquid dish neat product liquid-air partition coefficient greater than or equal to 7)
CC1C(C)(C)C2CCC3CC(C)(C)OC3C2C1(C)C (stereo not shown) [Material 679],Comment Code: Log of liquid dish neat product liquid-air partition coefficient,K (Log of liquid dish neat product liquid-air partition coefficient greater than or equal to 7)
same,Log of liquid dish neat product liquid-air partition coefficient (Comment Code),K (Log of liquid dish neat product liquid-air partition coefficient greater than or equal to 7)
CC1C(C)(C)C2CCC3CC(C)(C)OC3C2C1(C)C (stereo not shown) [Material 680],Comment Code: Log of liquid dish neat product liquid-air partition coefficient,K (Log of liquid dish neat product liquid-air partition coefficient greater than or equal to 7)
same,Log of liquid dish neat product liquid-air partition coefficient (Comment Code),K (Log of liquid dish neat product liquid-air partition coefficient greater than or equal to 7)
CC(C)=C1CCC2=CC(=O)CC(C)C2(C)C1 (stereo not shown) [Material 684],Comment Code: Log of liquid dish neat product liquid-air partition coefficient,K (Log of liquid dish neat product liquid-air partition coefficient greater than or equal to 7)
same,Log of liquid dish neat product liquid-air partition coefficient (Comment Code),K (Log of liquid dish neat product liquid-air partition coefficient greater than or equal to 7)
CCC(=O)OC(C)(C)C1CC=C(C)CC1 (stereo not shown) [Material 686],Log of liquid dish neat product liquid-air partition coefficient (Comment Code),K (Log of liquid dish neat product liquid-air partition coefficient greater than or equal to 7)
CC(=O)OC(C)(C)C1CC=C(C)CC1 (stereo not shown) [Material 687],Comment Code: Log of liquid dish neat product liquid-air partition coefficient,K (Log of liquid dish neat product liquid-air partition coefficient greater than or equal to 7)
C=CC(C)=CCC=C(C)CCC=C(C)C=O [Material 691],Log of liquid dish neat product liquid-air partition coefficient (Comment Code),K (Log of liquid dish neat product liquid-air partition coefficient greater than or equal to 7)
C=C(C)C1CCC2(C)CCC=C(C)C2C1 (stereo not shown) [Material 692],Log of liquid dish neat product liquid-air partition coefficient (Comment Code),K (Log of liquid dish neat product liquid-air partition coefficient greater than or equal to 7)
CC(=CCCC1(C)C2CC3C(C2)C31C)CO (stereo not shown) [Material 694],Comment Code: Log of liquid dish neat product liquid-air partition coefficient,K (Log of liquid dish neat product liquid-air partition coefficient greater than or equal to 7)
same,Log of liquid dish neat product liquid-air partition coefficient (Comment Code),K (Log of liquid dish neat product liquid-air partition coefficient greater than or equal to 7)
C=CCCC(=O)C1=CCCC(C)(C)C1 [Material 697],Log of liquid dish neat product liquid-air partition coefficient (Comment Code),K (Log of liquid dish neat product liquid-air partition coefficient greater than or equal to 7)
CC(O)CCC1CCCCC1 (stereo not shown) [Material 699],Comment Code: Log of liquid dish neat product liquid-air partition coefficient,K (Log of liquid dish neat product liquid-air partition coefficient greater than or equal to 7)
CCC(=O)C=CC1C(C)=CCCC1(C)C (stereo not shown) [Material 700],Log of liquid dish neat product liquid-air partition coefficient (Comment Code),K (Log of liquid dish neat product liquid-air partition coefficient greater than or equal to 7)
CC(C=O)=Cc1ccccc1 [Material 701],Comment Code: Log of liquid dish neat product liquid-air partition coefficient,K (Log of liquid dish neat product liquid-air partition coefficient greater than or equal to 7)
CC(=O)C(C)=CC1C(C)=CCCC1(C)C (stereo not shown) [Material 703],Comment Code: Log of liquid dish neat product liquid-air partition coefficient,K (Log of liquid dish neat product liquid-air partition coefficient greater than or equal to 7)
CC(=O)C=CC1C(C)=CCC(C)C1(C)C (stereo not shown) [Material 704],Log of liquid dish neat product liquid-air partition coefficient (Comment Code),K (Log of liquid dish neat product liquid-air partition coefficient greater than or equal to 7)
CC1=CCCC(C)=CCC(C)(C)C=CC1 [Material 706],Log of liquid dish neat product liquid-air partition coefficient (Comment Code),K (Log of liquid dish neat product liquid-air partition coefficient greater than or equal to 7)
C=C1CCCC(C)(C)C2C=C(C)CCC12 (stereo not shown) [Material 707],Log of liquid dish neat product liquid-air partition coefficient (Comment Code),K (Log of liquid dish neat product liquid-air partition coefficient greater than or equal to 7)
C=CC(C)=CCC=C(C)CCC=C(C)C [Material 710],Log of liquid dish neat product liquid-air partition coefficient (Comment Code),K (Log of liquid dish neat product liquid-air partition coefficient greater than or equal to 7)
CC1=CCCC2(C)CCC(C(C)(C)O)CC12 (stereo not shown) [Material 712],Comment Code: Log of liquid dish neat product liquid-air partition coefficient,K (Log of liquid dish neat product liquid-air partition coefficient greater than or equal to 7)
same,Log of liquid dish neat product liquid-air partition coefficient (Comment Code),K (Log of liquid dish neat product liquid-air partition coefficient greater than or equal to 7)
CC(C)=CCCC(C)c1ccc(C)cc1 (stereo not shown) [Material 713],Log of liquid dish neat product liquid-air partition coefficient (Comment Code),K (Log of liquid dish neat product liquid-air partition coefficient greater than or equal to 7)
CC1=CC2C(C(C)C)CCC(C)(O)C2CC1 (stereo not shown) [Material 716],Log of liquid dish neat product liquid-air partition coefficient (Comment Code),K (Log of liquid dish neat product liquid-air partition coefficient greater than or equal to 7)
CC(C)=CCCC(C)(O)C1CC=C(C)CC1 (stereo not shown) [Material 718],Log of liquid dish neat product liquid-air partition coefficient (Comment Code),K (Log of liquid dish neat product liquid-air partition coefficient greater than or equal to 7)
CC(C)=CCC=C(C)C1CC=C(C)CC1 (stereo not shown) [Material 719],Log of liquid dish neat product liquid-air partition coefficient (Comment Code),K (Log of liquid dish neat product liquid-air partition coefficient greater than or equal to 7)
CC1=CCCC2(C)CCC3CC12OC3(C)C (stereo not shown) [Material 726],Comment Code: Log of liquid dish neat product liquid-air partition coefficient,K (Log of liquid dish neat product liquid-air partition coefficient greater than or equal to 7)
same,Log of liquid dish neat product liquid-air partition coefficient (Comment Code),K (Log of liquid dish neat product liquid-air partition coefficient greater than or equal to 7)
CC(C)=CCCC1=CCC(C)(C=O)CC1 (stereo not shown) [Material 727],Log of liquid dish neat product liquid-air partition coefficient (Comment Code),K (Log of liquid dish neat product liquid-air partition coefficient greater than or equal to 7)
CCCC(O)Cc1ccccc1 (stereo not shown) [Material 730],Log of liquid dish neat product liquid-air partition coefficient (Comment Code),K (Log of liquid dish neat product liquid-air partition coefficient greater than or equal to 7)
CCC(C)(O)CCc1ccccc1 (stereo not shown) [Material 731],Log of liquid dish neat product liquid-air partition coefficient (Comment Code),K (Log of liquid dish neat product liquid-air partition coefficient greater than or equal to 7)
CC(C)CCCC(C)CCCC(C)C=O (stereo not shown) [Material 741],Log of liquid dish neat product liquid-air partition coefficient (Comment Code),K (Log of liquid dish neat product liquid-air partition coefficient greater than or equal to 7)
Cc1ccc(CC(C)C=O)cc1 (stereo not shown) [Material 742],Log of liquid dish neat product liquid-air partition coefficient (Comment Code),K (Log of liquid dish neat product liquid-air partition coefficient greater than or equal to 7)
C=CCOC(=O)COc1ccccc1 [Material 743],Comment Code: Log of liquid dish neat product liquid-air partition coefficient,K (Log of liquid dish neat product liquid-air partition coefficient greater than or equal to 7)
C=CCOCCc1ccccc1 [Material 744],Comment Code: Log of liquid dish neat product liquid-air partition coefficient,K (Log of liquid dish neat product liquid-air partition coefficient greater than or equal to 7)
C=CCOC(=O)CCC1CCCCC1 [Material 746],Log of liquid dish neat product liquid-air partition coefficient (Comment Code),K (Log of liquid dish neat product liquid-air partition coefficient greater than or equal to 7)
C=CCOC(=O)COCCC(C)C [Material 748],Log of liquid dish neat product liquid-air partition coefficient (Comment Code),K (Log of liquid dish neat product liquid-air partition coefficient greater than or equal to 7)
CCC(=O)N(CC)c1cccc(C)c1 [Material 755],Comment Code: Log of liquid dish neat product liquid-air partition coefficient,K (Log of liquid dish neat product liquid-air partition coefficient greater than or equal to 7)
CC(C)=CCCC(C)CCCC(C)C=O (stereo not shown) [Material 757],Log of liquid dish neat product liquid-air partition coefficient (Comment Code),K (Log of liquid dish neat product liquid-air partition coefficient greater than or equal to 7)
COc1ccc(C(C)=O)cc1 [Material 761],Comment Code: Log of liquid dish neat product liquid-air partition coefficient,K (Log of liquid dish neat product liquid-air partition coefficient greater than or equal to 7)
CCCOC(C)OCCc1ccccc1 (stereo not shown) [Material 766],Log of liquid dish neat product liquid-air partition coefficient (Comment Code),K (Log of liquid dish neat product liquid-air partition coefficient greater than or equal to 7)
COCCOC(C)OCc1ccccc1 (stereo not shown) [Material 768],Log of liquid dish neat product liquid-air partition coefficient (Comment Code),K (Log of liquid dish neat product liquid-air partition coefficient greater than or equal to 7)
C=C(C)C1CCC2(C)CCC=C(C)C2C1 (stereo not shown) [Material 774],Log of liquid dish neat product liquid-air partition coefficient (Comment Code),K (Log of liquid dish neat product liquid-air partition coefficient greater than or equal to 7)
CC1=CCCC2(C)CCC(C(C)(C)O)CC12 (stereo not shown) [Material 775],Comment Code: Log of liquid dish neat product liquid-air partition coefficient,K (Log of liquid dish neat product liquid-air partition coefficient greater than or equal to 7)
same,Log of liquid dish neat product liquid-air partition coefficient (Comment Code),K (Log of liquid dish neat product liquid-air partition coefficient greater than or equal to 7)
